These results are taken from patent US4607039A, “Quinoline derivatives which are 5-hydroxytryptamine antagonists” (Imperial Chemical Industries PLC, priority 1982, dated 1986).

For data set [1] the following is noted: stated in U.S. Pat. No. 1,860,286; cited from earlier work.
The nature of data set [2]: Tolerance in the marmoset, oral. The settings on record: in vivo, read-out: oral doses tolerated (up to). Here is the method:
(§1) No toxic effects or other undesirable effects have been observed with the compounds at doses at which they are active in the above-mentioned tests. Furthermore, as an indication of the lack of toxicity of a specific compound of the invention, namely 2-(2-dimethylamino-2-methylpropylthio)-4-methyl-3-phenylquinoline, that compound is tolerated in both the conscious dog and the marmoset at oral doses of up to 60 mg./kg.

Data set [3] can be described thus: Tolerance in the conscious dog, oral. The following applies: in vivo, read-out: oral doses tolerated (up to). As for the experimental part: as §1

The structures appear in SMILES notation.

`CCN(CC)CCOc1nc2ccccc2cc1-c1ccccc1` [2-(2-diethylaminoethoxy)-3-phenylquinoline]: the antipyretic activity result in data set [1] is “exhibits antipyretic activity”.

Regarding `Cc1c(-c2ccccc2)c(SCC(C)(C)N(C)C)nc2ccccc12.O=C(O)/C=C/C(=O)O.O=C(O)/C=C/C(=O)O` [Example 3, 2-(2-dimethylamino-2-methylpropylthio)-4-methyl-3-phenylquinoline difumarate], the MTD in data set [2] and in data set [3] was at least 60 mg/kg throughout.
